For 28 compounds, IC50 results are on record in patent US10450318B2, “CXCR4 receptor antagonists” (BRISTOL-MYERS SQUIBB COMPANY, priority 2015, dated 2019).

In this assay the target is T1, CXCR4 receptors (Homo sapiens, UniProt P61073).
T1 construct: expressing endogenous CXCR4 receptors; endogenous in cells; host or cells: CCRF-CEM (human T lymphoblast cells)
T1 sequence (P61073 whole entry): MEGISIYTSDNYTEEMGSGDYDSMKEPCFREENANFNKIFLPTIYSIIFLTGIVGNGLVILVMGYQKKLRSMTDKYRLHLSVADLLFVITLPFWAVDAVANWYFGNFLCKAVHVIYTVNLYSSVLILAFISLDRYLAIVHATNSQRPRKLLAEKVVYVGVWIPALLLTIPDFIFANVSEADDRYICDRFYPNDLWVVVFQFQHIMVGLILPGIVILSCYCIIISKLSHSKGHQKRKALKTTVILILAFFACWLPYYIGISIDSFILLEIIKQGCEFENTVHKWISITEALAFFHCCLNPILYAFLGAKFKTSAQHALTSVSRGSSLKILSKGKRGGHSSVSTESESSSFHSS
The assay is described as follows: CXCR4-CEM calcium flux assay, antagonist mode (inhibition of SDF-1α-induced calcium flux). Type of assay: cell-based. As to conditions: inhibition of calcium flux induced by 4 nM SDF-1α in CCRF-CEM cells. As for the experimental part: Exemplary compounds of the invention were tested for their ability to induce or inhibit calcium flux in CCRF-CEM cells. […] CXCR4-CEM Calcium Flux Assays. […] The cells were then equilibrated to room temperature for 30 minutes before assay. […] The serially diluted compounds were diluted to working concentrations with the same assay buffer to 0.5% DMSO. […] Activity of the compounds to induce calcium flux was monitored by FDSS in the “agonist mode” for 90 sec. For “antagonist mode” assessment, the cells are subsequently incubated for 25 min at room temperature. SDF-1α (R&D System Cat#350-NS/CF) was then added at a final concentration of 4 nM to stimulate the cells. Inhibition of SDF-1α-induced calcium flux was monitored by FDSS6000 for 90 sec. […] After correcting for background, EC50 values were determined. […] Inhibition data for the test compound over a range of concentrations was plotted as percentage inhibition of the test compound as compared to an internal control compound.
In the case of `C[C@@H]1CN(c2nccc3nc(CN(C)[C@H]4CCCc5cccnc54)cn23)C[C@H](C)N1C` [Example 97, (S)—N-Methyl-N-((5-((3S,5R)-3,4,5-trimethylpiperazin-1-yl)imidazo[1,2-c]pyrimidin-2-yl)methyl)-5,6,7,8-tetrahydroquinolin-8-amine], the IC50 was 480 nM.

Turning to `CN(Cc1cn2c(N3CCN4C[C@@H](F)C[C@H]4C3)nccc2n1)[C@H]1CCCc2cccnc21` [Example 87, (S)-N-((5-((7S,8aS)-7-fluorohexahydropyrrolo[1,2-a]pyrazin-2(1H)-yl)imidazo[1,2-c]pyrimidin-2-yl)methyl)-N-methyl-5,6,7,8-tetrahydroquinolin-8-amine], the IC50 worked out at 200 nM.

Take `CN(Cc1cn2c(N3CC4CNCC4C3)nccc2n1)[C@H]1CCCc2cccnc21` (stereo partly drawn) [Example 80, (8S)-N-((5-(hexahydropyrrolo[3,4-c]pyrrol-2(1H)-yl)imidazo[1,2-c]pyrimidin-2-yl)methyl)-N-methyl-5,6,7,8-tetrahydroquinolin-8-amine]: the IC50 worked out at 23 nM.

`CCN1CCN(c2nccc3nc(CN(C)[C@H]4CCCc5cccnc54)cn23)CC1` [Example 35, (S)-N-{[5-(4-ethylpiperazin-1-yl)imidazo[1,2-c]pyrimidin-2-yl]methyl}-N-methyl-5,6,7,8-tetrahydroquinolin-8-amine]: the IC50 was found to be 510 nM.

Turning to `CN1CC2CN(c3nccc4nc(CN(C)[C@H]5CCCc6cccnc65)cn34)CC2C1` (stereo partly drawn) [Example 81, (8S)-N-methyl-N-((5-(5-methylhexahydropyrrolo[3,4-c]pyrrol-2(1H)-yl)imidazo[1,2-c]pyrimidin-2-yl)methyl)-5,6,7,8-tetrahydroquinolin-8-amine], the IC50 is 32 nM.

For the compound `CN1CCCC2CN(c3nccc4nc(CN(C)[C@H]5CCCc6cccnc65)cn34)CC21` (stereo partly drawn) [Example 102, (8S)-N-methyl-N-((5-(1-methyloctahydro-6H-pyrrolo[3,4-b]pyridin-6-yl)imidazo[1,2-c]pyrimidin-2-yl)methyl)-5,6,7,8-tetrahydroquinolin-8-amine], the IC50 stood at 210 nM.

For `CN(Cc1cn2c(N3CCN(C(=O)Nc4ccccc4)CC3)nccc2n1)[C@H]1CCCc2cccnc21` [Example 43, 4-[2-({methyl[(S)-5,6,7,8-tetrahydroquinolin-8-yl]amino}methyl)imidazo[1,2-c]pyrimidin-5-yl]-N-phenylpiperazine-1-carboxamide], the half-inhibitory concentration (IC50) was determined as 130 nM.

`Cc1ccc(CN2CCN(c3nccc4nc(CN(C)[C@H]5CCCc6cccnc65)cn34)CC2)cc1` [Example 53, (S)-N-methyl-N-[(5-{4-[(4-methylphenyl)methyl]piperazin-1-yl}imidazo[1,2-c]pyrimidin-2-yl)methyl]-5,6,7,8-tetrahydroquinolin-8-amine]: the IC50 was 17 nM.

In the case of `CN(Cc1cn2c(N3CCN[C@H](CO)C3)nccc2n1)[C@H]1CCCc2cccnc21` [Example 86, ((S)-4-(2-((methyl((S)-5,6,7,8-tetrahydroquinolin-8-yl)amino)methyl)imidazo[1,2-c]pyrimidin-5-yl)piperazin-2-yl)methanol], the IC50 is 1.7 nM.

Turning to `CC(CN1CCN(c2nccc3nc(CN(C)[C@H]4CCCc5cccnc54)cn23)CC1)c1ccccc1` (stereo partly drawn) [Example 46, (S)-N-methyl-N-({5-[4-(2-phenylpropyl)piperazin-1-yl]imidazo[1,2-c]pyrimidin-2-yl}methyl)-5,6,7,8-tetrahydroquinolin-8-amine], the IC50 worked out at 7.3 nM.

Take `CN(Cc1cn2c(N3CCN(Cc4ccncc4)CC3)nccc2n1)[C@H]1CCCc2cccnc21` [Example 29, (S)-N-methyl-N-({5-[4-(pyridin-4-ylmethyl)piperazin-1-yl]imidazo[1,2-c]pyrimidin-2-yl}methyl)-5,6,7,8-tetrahydroquinolin-8-amine]: the IC50 is 77 nM.

For `CSc1nccc2nc(CN(C)[C@H]3CCCc4cccnc43)cn12` [Example 8, (S)—N-Methyl-N-((5-(methylthio)imidazo[1,2-c]pyrimidin-2-yl)methyl)-5,6,7,8-tetrahydroquinolin-8-amine], the IC50 turned out to be 89 nM.

As for `CN(Cc1cn2c(N3CC4CCCNC4C3)nccc2n1)[C@H]1CCCc2cccnc21` (single isomer, unassigned) [Example 95], the IC50 is 24 nM.

As for `CC(C)NC(=O)N1CCN(c2nccc3nc(CN(C)[C@H]4CCCc5cccnc54)cn23)CC1` [Example 44, 4-[2-({methyl[(S)-5,6,7,8-tetrahydroquinolin-8-yl]amino}methyl)imidazo[1,2-c]pyrimidin-5-yl]-N-(propan-2-yl)piperazine-1-carboxamide], the IC50 worked out at 9360 nM.

With `CN(Cc1cn2c(N3CCN(Cc4cccs4)CC3)nccc2n1)[C@H]1CCCc2cccnc21` [Example 26, (S)-N-methyl-N-({5-[4-(thiophen-2-ylmethyl)piperazin-1-yl]imidazo[1,2-c]pyrimidin-2-yl}methyl)-5,6,7,8-tetrahydroquinolin-8-amine], the IC50 is 14 nM.

Regarding `CN(Cc1cn2c(N3CCN(Cc4ncc[nH]4)CC3)nccc2n1)[C@H]1CCCc2cccnc21` [Example 49, (S)-N-({5-[4-(1H-imidazol-2-ylmethyl)piperazin-1-yl]imidazo[1,2-c]pyrimidin-2-yl}methyl)-N-methyl-5,6,7,8-tetrahydroquinolin-8-amine], the IC50 was 2.8 nM.

With `CN(Cc1cn2c(N3CCN(Cc4cncn4C)CC3)nccc2n1)[C@H]1CCCc2cccnc21` [Example 27, (S)-N-methyl-N-[(5-{4-[(1-methyl-1H-imidazol-5-yl)methyl]piperazin-1-yl}imidazo[1,2-c]pyrimidin-2-yl)methyl]-5,6,7,8-tetrahydroquinolin-8-amine], the IC50 amounted to 75 nM.

With `CN1CCN(c2nccc3nc(CN(C)[C@H]4CCCc5cccnc54)c(CO)n23)CC1` [Example 7, (S)-(2-((Methyl(5,6,7,8-tetrahydroquinolin-8-yl)amino)methyl)-5-(4-methylpiperazin-1-yl)imidazo[1,2-c]pyrimidin-3-yl)methanol], the IC50 was found to be 2.4 nM.

On to `CN(Cc1cn2c(N3CCN(CCF)CC3)nccc2n1)[C@H]1CCCc2cccnc21` [Example 12, (S)—N-((5-(4-(2-Fluoroethyl)piperazin-1-yl)imidazo[1,2-c]pyrimidin-2-yl)methyl)-N-methyl-5,6,7,8-tetrahydroquinolin-8-amine], for which the IC50 came to 54 nM.

Turning to `CC(=O)N1CCN(c2nccc3nc(CN(C)[C@H]4CCCc5cccnc54)cn23)CC1` [Example 10, (S)-1-(4-(2-((Methyl(5,6,7,8-tetrahydroquinolin-8-yl)amino)methyl)imidazo[1,2-c]pyrimidin-5-yl)piperazin-1-yl)ethanone], the IC50 turned out to be 8600 nM.

With `CN(Cc1cn2c(N3CCN(Cc4ccco4)CC3)nccc2n1)[C@H]1CCCc2cccnc21` [Example 54, (S)-N-({5-[4-(furan-2-ylmethyl)piperazin-1-yl]imidazo[1,2-c]pyrimidin-2-yl}methyl)-N-methyl-5,6,7,8-tetrahydroquinolin-8-amine], the IC50 amounted to 5.6 nM.

`CN(Cc1cn2c(N3CCN(Cc4cccc(C#N)c4)CC3)nccc2n1)[C@H]1CCCc2cccnc21` [Example 66, 3-({4-[2-({methyl[(S)-5,6,7,8-tetrahydroquinolin-8-yl]amino}methyl)imidazo[1,2-c]pyrimidin-5-yl]piperazin-1-yl}methyl)benzonitrile]: the IC50 came out at 9.4 nM.

`CN1CCCC2CN(c3nccc4nc(CN(C)[C@H]5CCCc6cccnc65)cn34)CC21` (stereo partly drawn) [Example 103, (8S)-N-methyl-N-((5-(1-methyloctahydro-6H-pyrrolo[3,4-b]pyridin-6-yl)imidazo[1,2-c]pyrimidin-2-yl)methyl)-5,6,7,8-tetrahydroquinolin-8-amine]: the IC50 turned out to be 260 nM.

Turning to `Cc1cccc(CN2CCN(c3nccc4nc(CN(C)[C@H]5CCCc6cccnc65)cn34)CC2)c1` [Example 52, (S)-N-methyl-N-[(5-{4-[(3-methylphenyl)methyl]piperazin-1-yl}imidazo[1,2-c]pyrimidin-2-yl)methyl]-5,6,7,8-tetrahydroquinolin-8-amine], the IC50 stood at 2.9 nM.

In the case of `CN(Cc1cn2c(N3CCN(C4CCC4)CC3)nccc2n1)[C@H]1CCCc2cccnc21` [Example 30, (S)-N-{[5-(4-cyclobutylpiperazin-1-yl)imidazo[1,2-c]pyrimidin-2-yl]methyl}-N-methyl-5,6,7,8-tetrahydroquinolin-8-amine], the IC50 worked out at 190 nM.

On to `CN(Cc1cn2c(N3CCN(CCc4ccc(O)cc4)CC3)nccc2n1)[C@H]1CCCc2cccnc21` [Example 61, 4-(2-{4-[2-({methyl[(S)-5,6,7,8-tetrahydroquinolin-8-yl]amino}methyl)imidazo[1,2-c]pyrimidin-5-yl]piperazin-1-yl}ethyl)phenol], for which the IC50 stood at 33 nM.

`CC(C)CCN1CCN(c2nccc3nc(CN(C)[C@H]4CCCc5cccnc54)cn23)CC1` [Example 19, (S)-N-methyl-N-({5-[4-(3-methylbutyl)piperazin-1-yl]imidazo[1,2-c]pyrimidin-2-yl}methyl)-5,6,7,8-tetrahydroquinolin-8-amine]: the IC50 was found to be 14 nM.

`CN1CCC2CN(c3nccc4nc(CN(C)[C@H]5CCCc6cccnc65)cn34)CC21` (stereo partly drawn) [Example 101, (8S)-N-methyl-N-((5-(1-methylhexahydropyrrolo[3,4-b]pyrrol-5(1H)-yl)imidazo[1,2-c]pyrimidin-2-yl)methyl)-5,6,7,8-tetrahydroquinolin-8-amine]: the IC50 turned out to be 220 nM.
